Among the data in ChEMBL document CHEMBL5390230, “Imidazole-based sphingosine-1-phosphate transporter Spns2 inhibitors” (Bioorg Med Chem Lett, 2023) are inhibition and IC50 values, retold here.

The first assay deals with T1, Sphingosine-1-phosphate transporter SPNS2 (Homo sapiens) (UniProt Q8IVW8).
T1 sequence (whole entry): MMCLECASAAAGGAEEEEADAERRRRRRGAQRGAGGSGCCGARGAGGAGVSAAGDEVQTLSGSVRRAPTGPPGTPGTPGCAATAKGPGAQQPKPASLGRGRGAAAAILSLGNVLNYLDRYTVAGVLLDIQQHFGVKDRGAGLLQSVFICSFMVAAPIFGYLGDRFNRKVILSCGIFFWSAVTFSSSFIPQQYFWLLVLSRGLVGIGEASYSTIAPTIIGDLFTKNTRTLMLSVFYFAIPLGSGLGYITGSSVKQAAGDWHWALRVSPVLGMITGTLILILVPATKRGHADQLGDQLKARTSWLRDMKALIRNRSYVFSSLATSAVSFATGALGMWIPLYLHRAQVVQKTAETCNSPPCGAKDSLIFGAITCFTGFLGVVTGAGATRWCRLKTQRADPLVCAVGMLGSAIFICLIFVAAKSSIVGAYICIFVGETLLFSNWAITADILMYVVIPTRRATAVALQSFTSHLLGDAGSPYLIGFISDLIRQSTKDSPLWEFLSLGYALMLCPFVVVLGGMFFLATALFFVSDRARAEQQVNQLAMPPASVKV
Briefly: Inhibition of Spns2 in human HeLa cells assessed as decrease in extracellular S1P level at 3 uM by LC/MS analysis relative to control. Type of assay: cell-based.
Regarding `CCCCCCCCCCc1nc(-c2ccc(-n3cc[n+](C)c3)cc2)no1`, the inhibition came to 41%.

For the compound `CCCCCCCCCc1nc(-c2ccc(-n3ccnc3)cc2)no1`, the inhibition was 28%.

Take `CCCCCCCCCc1nc(-c2ccc(-n3cc[n+](C)c3)cc2)no1`: the inhibition is 47%.

Take `CCCCCCCCCCCc1nc(-c2ccc(-n3cc[n+](C)c3)cc2)no1`: the inhibition turned out to be 3%.

For `CCCCCCCCCCCc1nc(-c2ccc(-n3ccnc3)cc2)no1`, the inhibition worked out at 25%.

For `CCCCCCCc1nc(-c2ccc(-n3cc[n+](C)c3)cc2)no1`, the inhibition stood at 0%.

Consider `CCCCCCCCc1nc(-c2ccc(-n3ccnc3)cc2)no1`, for which the inhibition is 22%.

As to `CCCCCCCCc1nc(-c2ccc(-n3cc[n+](C)c3)cc2)no1`, the inhibition worked out at 26%.

Take `CCCCCCCCCCc1nc(-c2ccc(-n3ccnc3)cc2)no1`: the inhibition came to 33%.

On to `CCCCCCCc1nc(-c2ccc(-n3ccnc3)cc2)no1`, for which the inhibition was 12%.

The target in a further assay is T1, Sphingosine-1-phosphate transporter SPNS2 (Homo sapiens). Briefly: Inhibition of Spns2 in human HeLa cells assessed as decrease in extracellular S1P level at 2 uM by LC/MS analysis relative to control. Type of assay: cell-based.
For `CCCCCCCCCCc1ccc(-c2cn(CCCOC)c(CCCN)n2)cc1`, the inhibition amounted to 11%.

Regarding `CCCCCCCCCCc1ccc(-c2cn(CC(=O)OC(C)C)c(CCCN)n2)cc1`, the inhibition is 27%.

For the compound `CCCCCCCCCCc1ccc(-c2noc(CCCN)n2)cc1`, the inhibition stood at 67%.

As for `CCCCCCCCCCc1ccc(-c2cn(CC(N)=O)c(CCCN)n2)cc1`, the inhibition was 10%.

Turning to `CCCCCCCCCCc1ccc(-c2cn(CC)c(CCCN)n2)cc1`, the inhibition came to 51%.

In the case of `CCCCCCCCCCc1ccc(-c2cn(CCC)c(CCCN)n2)cc1`, the inhibition was 7%.

As for `CCCCCCCCCCc1ccc(-c2cn(C)c(CCCN)n2)cc1`, the inhibition was 51%.

The target of a further assay is T2, Sphingosine-1-phosphate transporter SPNS2 (Homo sapiens, UniProt Q8IVW8).
T2 sequence (Q8IVW8 whole entry): T1 sequence (whole entry)
Briefly: Inhibition of Spns2 in human HeLa cells decrease in extracellular S1P level by LC/MS method. Type of assay: cell-based.
In turn, `CCCCCCCCCCc1ccc(-c2cn(CC)c(CCCN)n2)cc1` displayed an IC50 of 1400 nM.

The compound `CCCCCCCCCCc1ccc(-c2cn(C)c(CCCN)n2)cc1` gave an IC50 of 2820 nM.
